# According to patent US5455241A, “Polycyclic compounds and processes for the preparation thereof” (Ciba-Geigy Corporation, priority 1993, dated 1995):
# Read-outs that look alike come from different tables or passages of the source.
# Assays:
# Stability in solution = assay type: physicochemical
# [1] = Determination of the maximum tolerated dose (MTD); conditions: mouse, in vivo, 3 female Balb/c mice per dose, within 7 days
# Protocol: Example 11: Determination of the maximum tolerated dose (MTD) of N-[0-(tetrahydro-pyran-4-yl) -D-lactoyl]- staurosporin
# 3 female Balb/c mice per dose are treated i.p. or p.o. with N-[O]-(tetrahydropyran-4-yl)-D-lactoyl]-staurosporin in dimethyl sulfoxide […]/sodium chloride solution (see Example 10 for formulation). The dose is increased until animals succumb within 7 days.
# [2] = test system: human bladder tumours T24; assay: Anti-tumour activity in vivo, s.c. transplanted human bladder tumours T24 in hairless mice; parameters: species or system human tumour in female Balb/c hairless mice; conditions: 15 days
# Protocol: Female Balb/c hairless mice with s.c. transplanted human bladder tumours T24 are used to determine the anti-tumour activity. With the animals under peroral forene narcosis, approximately 25 mg of a solid tumour are placed under the skin on "the animals' left flank on day 0 and the small incised wound is closed by means of suture clips. On day 6 after the transplantation, the mice are divided at random into groups of 6 animals and treatment commences. The treatment is carried out for 15 days with peroral or intraperitoneal administration once daily of a compound of formula I in dimethyl sulfoxide/Tween 80/sodium chloride solution in the various doses. The tumours are measured twice a week with a slide gauge and the volume of the tumours is calculated. In this test, the peroral or intraperitoneal administration of 3 mg/kg daily of a compound of formula I brings about a reduction in the average tumour volume to from 10 to 15% of the tumour volume in the untreated control animals.
# Example 10: Anti-tumour activity of N-[0-(tetrahydropyran-4-yl)-D-lactoyl]-staurosporin in vivo:
# The substance is formulated as follows: 12.5 mg of active ingredient are dissolved in 0.25 ml of dimethyl sulfoxide and mixed with 50 μof Tween 80.4.7 ml of a 0.9% sodium chloride solution are then added and the whole is mixed thoroughly.
# Female Balb/c hairless mice with s.c. transplanted human bladder tumours T24 are used to determine the anti-tumour activity. With the animals under peroral forene narcosis, approximately 25 mg of a solid tumour are placed under the skin on the animals' left flank on day 0 and the small incised wound is closed by means of suture clips. On day 6 after the transplantation, the mice are divided at random into groups of 6 animals and treatment commences. The treatment is carried out for 15 days with the administration once daily of the various doses. The tumours are measured twice a week with a slide gauge and the volume of the tumours is calculated. The results are compiled in the following Table in which "dose" is the daily dose, "admin." is the mode of administration, "exper." is experiment and "T/C %" is the percentage quotient of the values in the treated mice and the untreated control mice.
SMILES,stability in solution (Stability in solution),"MTD at 168 h ([1]; ip, read-out: MTD (i.p.)) [mg/kg]","MTD at 168 h ([1]; po, read-out: MTD (p.o.)) [mg/kg]","average tumour volume [T/C %] ([2]; 0.19 mg/kg daily i.p., Exper. 2) [%]","average tumour volume [T/C %] ([2]; 0.38 mg/kg daily i.p., Exper. 2) [%]","average tumour volume [T/C %] ([2]; 0.75 mg/kg daily i.p., Exper. 2) [%]","average tumour volume [T/C %] ([2]; 0.78 mg/kg daily p.o., Exper. 2) [%]","average tumour volume [T/C %] ([2]; 1.50 mg/kg daily i.p., Exper. 1) [%]","average tumour volume [T/C %] ([2]; 1.50 mg/kg daily i.p., Exper. 2) [%]","average tumour volume [T/C %] ([2]; 1.56 mg/kg daily p.o., Exper. 2) [%]","average tumour volume [T/C %] ([2]; 3.00 mg/kg daily i.p., Exper. 1) [%]","average tumour volume [T/C %] ([2]; 3.00 mg/kg daily i.p., Exper. 2) [%]","average tumour volume [T/C %] ([2]; 3.13 mg/kg daily p.o., Exper. 1) [%]","average tumour volume [T/C %] ([2]; 3.13 mg/kg daily p.o., Exper. 2) [%]","average tumour volume [T/C %] ([2]; 6.25 mg/kg daily p.o., Exper. 1) [%]","average tumour volume [T/C %] ([2]; 6.25 mg/kg daily p.o., Exper. 2) [%]"
"CO[C@@H]1[C@H](N(C)C(=O)COC2CCOCC2)C[C@H]2O[C@]1(C)n1c3ccccc3c3c4c(c5c6ccccc6n2c5c31)C(=O)NC4O (stereo partly shown) [Example 7, N-[2-(tetrahydropyran-4-yl-oxy)-acetyl]-7-hydroxy-staurospo]",unstable in solution,–,–,–,–,–,–,–,–,–,–,–,–,–,–,–
CO[C@@H]1[C@H](N(C)C(=O)[C@@H](C)OC2CCOCC2)C[C@H]2O[C@]1(C)n1c3ccccc3c3c4c(c5c6ccccc6n2c5c31)C(=O)NC4 [N-[O-(tetrahydropyran-4-yl)-D-lactoyl]-staurosporin],–,31.2,62.5,74,62,32,58,14,19,31,9,11,17,14,15,12
